Reference: patent publication US4957923A, “Diuretic or antihypertensive composition” (Fujisawa Pharmaceutical Co., Ltd., priority 1988, dated 1990)

Assays:
DOCA hypertensive rats = assay: Antihypertension action (DOCA hypertensive rats); format: in vivo, rat (Wistar)
Description: Male Wistar rats, 10 weeks old, were subjected to left nephrectomy and 2 to 4 days after operation, deoxycorticosterone acetate was administered subcutaneously in a dose of 30 mg/ml/kg twice a week. The animals were given 1% saline for drinking water and the individuals showing a mean blood pressure of ≥150 mmHg at 15 weeks of age were submitted to the experiment. After catheterization, saline for drinking water was replaced with tap water. At the beginning of the experiment, the test rats had mean blood pressures from 152 to 204 mmHg, heart rates from 354 to 462 beats/min. and body weights from 232 to 318 g. 3~5 Animals per group were used.
3 Or 4 days before the beginning of the experiment, one end of a catheter for blood pressure measurement was passed from the femoral artery to the abdominal aorta of each rat and the other end was passed beneath the skin and fixed in exposed position in the dorsocervical region. The drug was orally administered once a day for 5 consecutive days. The rats had been deprived of food for about 3 hours before drug administration. The blood pressure was measured before administration and 5 hours after administration of days 1, 3 and 5. At each blood pressure measurement, the mean blood pressure was observed via a pressure transducer connected to the dorsocervical end of the catheter for blood pressure measurement and the stabilized mean blood pressure was recorded.
Drug was suspended and diluted using a 0.5% solution of methylcellulose and 5ml/kg of the suspension was orally administered.

[1] = system: healthy male adult volunteers; assay: Antihypertensive action (human); format: in vivo; details: mean ± S.D.
Description: To 6 healthy male adult volunteers, 150 mg of compound A (one capsule each of capsules shown in Examples 1 and 2 below) was orally administered twice a day at a 12-hour interval from 30 minutes after breakfast to 2 hours after supper for 8 consecutive days (except on day 8 when the administration was made only once in the morning) and the systolic blood pressure in standing position was measured.

[2] = system: healthy male adult volunteers; assay: Diuretic action (human); format: in vivo; details: mean ± S.D.
Description: To healthy male adult volunteers, 300 mg (the capsule of Example 3 below ×1) (6 men) or 600 mg (the capsule of Example 3 below ×2) (6 men) of compound A was orally […] administered in fasting condition, or 600 mg (the capsule of Example 3 below×2) (6 men) of compound A was orally administered 30 minutes after breakfast. In each group, the 24-hr urine volume before administration and that on day 1 after administration were respectively determined.

[3] = 3.2 mg/kg p.o. once a day, Day 1 before administration (baseline)
[4] = 3.2 mg/kg p.o. once a day, Day 3 after 5 hr
[5] = 3.2 mg/kg p.o. once a day, Day 3 before administration
[6] = 3.2 mg/kg p.o. once a day, Day 5 after 5 hr
[7] = 3.2 mg/kg p.o. once a day, Day 5 before administration
[8] = 10 mg/kg p.o. once a day, Day 1 after 5 hr
[9] = 10 mg/kg p.o. once a day, Day 1 before administration (baseline)
[10] = 10 mg/kg p.o. once a day, Day 3 after 5 hr
[11] = 10 mg/kg p.o. once a day, Day 3 before administration
[12] = 10 mg/kg p.o. once a day, Day 5 after 5 hr
[13] = 10 mg/kg p.o. once a day, Day 5 before administration
[14] = 32 mg/kg p.o. once a day, Day 1 after 5 hr
[15] = 32 mg/kg p.o. once a day, Day 1 before administration (baseline)
[16] = 32 mg/kg p.o. once a day, Day 3 after 5 hr
[17] = 32 mg/kg p.o. once a day, Day 3 before administration
[18] = 32 mg/kg p.o. once a day, Day 5 after 5 hr
[19] = 32 mg/kg p.o. once a day, Day 5 before administration

O=C(O)Cn1c(=O)n(Cc2ccc(Br)cc2F)c(=O)c2ccc(Cl)cc21 [Compound A, 2-[7-Chloro-3-(4-bromo-2-fluorobenzyl)-1,2,3,4-tetrahydro-2,4-dioxoquinazolin-1-yl]acetic acid]
Mean blood pressure (DOCA hypertensive rats; 3.2 mg/kg p.o. once a day, Day 1 after 5 hr): 148 mm Hg
Mean blood pressure (DOCA hypertensive rats; [3]): 175 mm Hg
Percentage of change (mean blood pressure) (DOCA hypertensive rats; [3]): 0.0%
Mean blood pressure (DOCA hypertensive rats; [4]): 142 mm Hg
Percentage of change (mean blood pressure) (DOCA hypertensive rats; [4]): -18.6%
Mean blood pressure (DOCA hypertensive rats; [5]): 153 mm Hg
Percentage of change (mean blood pressure) (DOCA hypertensive rats; [5]): -13.4%
Mean blood pressure (DOCA hypertensive rats; [6]): 131 mm Hg
Percentage of change (mean blood pressure) (DOCA hypertensive rats; [6]): -24.9%
Mean blood pressure (DOCA hypertensive rats; [7]): 139 mm Hg
Percentage of change (mean blood pressure) (DOCA hypertensive rats; [7]): -21.0%
Mean blood pressure (DOCA hypertensive rats; [8]): 145 mm Hg
Percentage of change (mean blood pressure) (DOCA hypertensive rats; [8]): -13.0%
Mean blood pressure (DOCA hypertensive rats; [9]): 166 mm Hg
Percentage of change (mean blood pressure) (DOCA hypertensive rats; [9]): 0.0%
Mean blood pressure (DOCA hypertensive rats; [10]): 127 mm Hg
Percentage of change (mean blood pressure) (DOCA hypertensive rats; [10]): -23.1%
Mean blood pressure (DOCA hypertensive rats; [11]): 137 mm Hg
Percentage of change (mean blood pressure) (DOCA hypertensive rats; [11]): -17.2%
Mean blood pressure (DOCA hypertensive rats; [12]): 118 mm Hg
Percentage of change (mean blood pressure) (DOCA hypertensive rats; [12]): -29.1%
Mean blood pressure (DOCA hypertensive rats; [13]): 127 mm Hg
Percentage of change (mean blood pressure) (DOCA hypertensive rats; [13]): -23.2%
Mean blood pressure (DOCA hypertensive rats; [14]): 133 mm Hg
Percentage of change (mean blood pressure) (DOCA hypertensive rats; [14]): -20.1%
Mean blood pressure (DOCA hypertensive rats; [15]): 168 mm Hg
Percentage of change (mean blood pressure) (DOCA hypertensive rats; [15]): 0.0%
Mean blood pressure (DOCA hypertensive rats; [16]): 132 mm Hg
Percentage of change (mean blood pressure) (DOCA hypertensive rats; [16]): -20.1%
Mean blood pressure (DOCA hypertensive rats; [17]): 133 mm Hg
Percentage of change (mean blood pressure) (DOCA hypertensive rats; [17]): -19.2%
Mean blood pressure (DOCA hypertensive rats; [18]): 116 mm Hg
Percentage of change (mean blood pressure) (DOCA hypertensive rats; [18]): -30.2%
Mean blood pressure (DOCA hypertensive rats; [19]): 117 mm Hg
Percentage of change (mean blood pressure) (DOCA hypertensive rats; [19]): -29.5%
Systolic blood pressure in standing position ([1]; 150 mg p.o. twice a day for 8 days, Day 9 immediately before breakfast): 113 ± 3 mmHg
Systolic blood pressure in standing position ([1]; 150 mg p.o. twice a day for 8 days, Day 10 immediately before breakfast): 117 ± 6 mmHg
Systolic blood pressure in standing position ([1]; 150 mg p.o. twice a day, Day 1 immediately before breakfast (before first dose, baseline)): 121 ± 8 mmHg
Systolic blood pressure in standing position ([1]; 150 mg p.o. twice a day, Day 2 immediately before breakfast): 113 ± 6 mmHg
Systolic blood pressure in standing position ([1]; 150 mg p.o. twice a day, Day 3 immediately before breakfast): 114 ± 7 mmHg
Systolic blood pressure in standing position ([1]; 150 mg p.o. twice a day, Day 4 immediately before breakfast): 114 ± 5 mmHg
Systolic blood pressure in standing position ([1]; 150 mg p.o. twice a day, Day 5 immediately before breakfast): 110 ± 8 mmHg
Systolic blood pressure in standing position ([1]; 150 mg p.o. twice a day, Day 6 immediately before breakfast): 114 ± 6 mmHg
Systolic blood pressure in standing position ([1]; 150 mg p.o. twice a day, Day 7 immediately before breakfast): 116 ± 8 mmHg
Systolic blood pressure in standing position ([1]; 150 mg p.o. twice a day, Day 8 immediately before breakfast): 117 ± 5 mmHg
Urine volume ([2]; 300 mg p.o., without breakfast, 0-2 hr): 95 ± 57 mL
Urine volume ([2]; 300 mg p.o., without breakfast, 2-4 hr): 136 ± 60 mL
Urine volume ([2]; 300 mg p.o., without breakfast, 4-8 hr): 328 ± 55 mL
Urine volume ([2]; 300 mg p.o., without breakfast, 8-12 hr): 340 ± 79 mL
Urine volume ([2]; 300 mg p.o., without breakfast, 12-24 hr): 609 ± 147 mL
Urine volume ([2]; 300 mg p.o., without breakfast, -24-0 hr (before administration, baseline)): 902 ± 256 mL
Urine volume ([2]; 300 mg p.o., without breakfast, total 0-24 hr): 1508 ± 274 mL
Urine volume ([2]; 600 mg p.o., 30 min after breakfast, 0-2 hr): 130 ± 46 mL
Urine volume ([2]; 600 mg p.o., 30 min after breakfast, 2-4 hr): 151 ± 19 mL
Urine volume ([2]; 600 mg p.o., 30 min after breakfast, 4-8 hr): 414 ± 161 mL
Urine volume ([2]; 600 mg p.o., 30 min after breakfast, 8-12 hr): 507 ± 139 mL
Urine volume ([2]; 600 mg p.o., 30 min after breakfast, 12-24 hr): 829 ± 240 mL
Urine volume ([2]; 600 mg p.o., 30 min after breakfast, -24-0 hr (before administration, baseline)): 1234 ± 212 mL
Urine volume ([2]; 600 mg p.o., 30 min after breakfast, total 0-24 hr): 2031 ± 362 mL
Urine volume ([2]; 600 mg p.o., without breakfast, 0-2 hr): 64 ± 24 mL
Urine volume ([2]; 600 mg p.o., without breakfast, 2-4 hr): 82 ± 32 mL
Urine volume ([2]; 600 mg p.o., without breakfast, 4-8 hr): 292 ± 50 mL
Urine volume ([2]; 600 mg p.o., without breakfast, 8-12 hr): 393 ± 141 mL
Urine volume ([2]; 600 mg p.o., without breakfast, 12-24 hr): 863 ± 253 mL
Urine volume ([2]; 600 mg p.o., without breakfast, -24-0 hr (before administration, baseline)): 982 ± 293 mL
Urine volume ([2]; 600 mg p.o., without breakfast, total 0-24 hr): 1693 ± 368 mL
